Measurements published in patent publication US10798941B2, “Microbiocidal oxadiazole derivatives” (SYNGENTA PARTICIPATIONS AG, priority 2016, dated 2020).

Each molecule was assayed on Glomerella Lagenarium (Colletotrichum Lagenarium) (assay: Glomerella lagenarium (Colletotrichum lagenarium) liquid culture / cucumber / preventative (anthracnose)). Details: Colletotrichum orbiculare; 20 ppm in the applied formulation; liquid culture in PDB, 24° C., inhibition of growth measured photometrically 3 to 4 days after application, vs untreated; read-out: disease control.
Format: cell-based
Procedure: Mycelia fragments or conidia suspensions of a fungus prepared either freshly from liquid cultures of the fungus or from cryogenic storage, are directly mixed into nutrient broth. DMSO solutions of the test compound (max. 10 mg/ml) are diluted with 0.025% Tween20 by a factor of 50 and 10 μl of this solution is pipetted into a microtiter plate (96-well format). The nutrient broth containing the fungal spores/mycelia fragments is then added to give an end concentration of the tested compound. The test plates are incubated in the dark at 24° C. and 96% relative humidity. The inhibition of fungal growth is determined photometrically after 2 to 7 days, depending on the pathosystem, and percent antifungal activity relative to the untreated check is calculated.
Conidia of the fungus from cryogenic storage are directly mixed into nutrient broth (PDB—potato dextrose broth). After placing a (DMSO) solution of test compound into a microtiter plate (96-well format), the nutrient broth containing the fungal spores is added.
The following compounds at 20 ppm in the applied formulation give at least 80% disease control in this test when compared to untreated control under the same conditions, which show extensive disease development.
For `Cc1ccc2c(C=O)cn(Cc3ccc(-c4noc(C(F)(F)F)n4)cc3)c2c1` [Compound 1.51, 6-methyl-1-[[4-[5-(trifluoromethyl)-1,2,4-oxadiazol-3-yl]phenyl]methyl]indole-3-carbaldehyde], the inhibition of growth at 20 ppm was at least 80%.
`FC(F)(F)c1nc(-c2ccc(Cn3ccc4ccc(Cl)cc43)cc2)no1` [Compound 1.64, 3-[4-[(6-chloroindol-1-yl)methyl]phenyl]-5-(trifluoromethyl)-1,2,4-oxadiazole] gave an inhibition of growth at 20 ppm of at least 80%.
Molecule `COC(=O)c1cccc2c1ccn2Cc1ccc(-c2noc(C(F)(F)F)n2)cc1` [Compound 1.66, methyl 1-[[4-[5-(trifluoromethyl)-1,2,4-oxadiazol-3-yl]phenyl]methyl]indole-4-carboxylate] has an inhibition of growth at 20 ppm of at least 80%.
Molecule `COC(=O)c1cc(C(F)(F)F)n(Cc2ccc(-c3noc(C(F)(F)F)n3)cc2)c1C` [Compound 1.68, methyl 2-methyl-5-(trifluoromethyl)-1-[[4-[5-(trifluoromethyl)-1,2,4-oxadiazol-3-yl]phenyl]methyl]pyrrole-3-carboxylate] has an inhibition of growth at 20 ppm of at least 80%.
`FC(F)(F)c1nc(-c2ccc(Cn3c(Br)nc(Br)c3Br)cc2)no1` [Compound 1.69, 3-[4-[(2,4,5-tribromoimidazol-1-yl)methyl]phenyl]-5-(trifluoromethyl)-1,2,4-oxadiazole] gave an inhibition of growth at 20 ppm of at least 80%.
Molecule `Cc1c(C=O)c2ccccc2n1Cc1ccc(-c2noc(C(F)(F)F)n2)cc1` [Compound 1.70, 2-methyl-1-[[4-[5-(trifluoromethyl)-1,2,4-oxadiazol-3-yl]phenyl]methyl]indole-3-carbaldehyde] has an inhibition of growth at 20 ppm of at least 80%.
In the case of `FC(F)(F)c1nc(-c2ccc(Cn3c(Br)nc(Cl)c3Cl)cc2)no1` [Compound 1.72, 3-[4-[(2-bromo-4,5-dichloro-imidazol-1-yl)methyl]phenyl]-5-(trifluoromethyl)-1,2,4-oxadiazole], the inhibition of growth at 20 ppm is reported as at least 80%.
`CCOC(=O)c1nn(Cc2ccc(-c3noc(C(F)(F)F)n3)cc2)cc1-c1ccccc1` [Compound 1.84, ethyl 4-phenyl-1-[[4-[5-(trifluoromethyl) 1,2,4-oxadiazol-3-yl]phenyl]methyl]pyrazole-3-carboxylate] showed an inhibition of growth at 20 ppm of at least 80%.
For `Fc1cc2ncn(Cc3ccc(-c4noc(C(F)(F)F)n4)cc3)c2cc1Cl` [Compound 1.92, 3-[4-[(6-chloro-5-fluoro-benzimidazol-1-yl)methyl]phenyl]-5-(trifluoromethyl)-1,2,4-oxadiazole], the inhibition of growth at 20 ppm was at least 80%.
For `FC(F)(F)c1nc(-c2ccc(Cn3cncn3)c(C(F)(F)F)c2)no1` [Compound 1.98, 3-[4-(1,2,4-triazol-1-ylmethyl)-3-(trifluoromethyl)phenyl]-5-(trifluoromethyl)-1,2,4-oxadiazole], the inhibition of growth at 20 ppm was at least 80%.
Molecule `Cc1cc(C)n(Cc2ccc(-c3noc(C(F)(F)F)n3)cc2Cl)n1` [Compound 1.100, 3-[3-chloro-4-[(3,5-dimethylpyrazol-1-yl)methyl]phenyl]-5-(trifluoromethyl)-1,2,4-oxadiazole] has an inhibition of growth at 20 ppm of at least 80%.
`FC(F)(F)c1nc(-c2ccc(Cn3cnc(Br)c3)c(C(F)(F)F)c2)no1` [Compound 1.103, 3-[4-[(4-bromoimidazol-1-yl)methyl]-3-(trifluoromethyl)phenyl]-5-(trifluoromethyl)-1,2,4-oxadiazole] was tested, and the inhibition of growth at 20 ppm was at least 80%.
`COC(=O)c1ncn(Cc2ccc(-c3noc(C(F)(F)F)n3)cc2Cl)c1C(=O)OC` [Compound 1.104, dimethyl 1-[[2-chloro-4-[5-(trifluoromethyl)-1,2,4-oxadiazol-3-yl]phenyl]methyl]imidazole-4,5-dicarboxylate] was tested, and the inhibition of growth at 20 ppm was at least 80%.
Work on `N#Cc1ncn(Cc2ccc(-c3noc(C(F)(F)F)n3)cc2Cl)c1C#N` [Compound 1.106, 1-[[2-chloro-4-[5-(trifluoromethyl)-1,2,4-oxadiazol-3-yl]phenyl]methyl]imidazole-4,5-dicarbonitrile] yielded an inhibition of growth at 20 ppm of at least 80%.
`FC(F)(F)c1nc(-c2ccc(Cn3cnc4ccccc43)c(Cl)c2)no1` [Compound 1.110, 3-[4-(benzimidazol-1-ylmethyl)-3-chloro-phenyl]-5-(trifluoromethyl)-1,2,4-oxadiazole] showed an inhibition of growth at 20 ppm of at least 80%.
`FC(F)(F)c1nc(-c2ccc(Cn3cc(Cl)cn3)c(Cl)c2)no1` [Compound 1.111, 3-[3-chloro-4-[(4-chloropyrazol-1-yl)methyl]phenyl]-5-(trifluoromethyl)-1,2,4-oxadiazole] showed an inhibition of growth at 20 ppm of at least 80%.
`FC(F)(F)c1nc(-c2ccc(Cn3nnnc3-c3ccc(Cl)cc3)c(Cl)c2)no1` [Compound 1.113, 3-[3-chloro-4-[[5-(4-chlorophenyl)tetrazol-1-yl]methyl]phenyl]-5-(trifluoromethyl)-1,2,4-oxadiazole] gave an inhibition of growth at 20 ppm of at least 80%.
`FC(F)(F)c1nc(-c2ccc(Cn3cc(I)cn3)c(Cl)c2)no1` [Compound 1.114, 3-[3-chloro-4-[(4-iodopyrazol-1-yl)methyl]phenyl]-5-(trifluoromethyl)-1,2,4-oxadiazole] was tested, and the inhibition of growth at 20 ppm was at least 80%.
In the case of `FC(F)(F)c1nc(-c2ccc(Cn3cc(Br)cn3)c(Cl)c2)no1` [Compound 1.115, 3-[4-[(4-bromopyrazol-1-yl)methyl]-3-chloro-phenyl]-5-(trifluoromethyl)-1,2,4-oxadiazole], the inhibition of growth at 20 ppm is reported as at least 80%.
In the case of `COc1cc(-c2noc(C(F)(F)F)n2)ccc1Cn1cncc1Br` [Compound 1.116, 3-[4-[(5-bromoimidazol-1-yl)methyl]-3-methoxy-phenyl]-5-(trifluoromethyl)-1,2,4-oxadiazole], the inhibition of growth at 20 ppm is reported as at least 80%.
For `COc1cc(-c2noc(C(F)(F)F)n2)ccc1Cn1cnc(Br)c1` [Compound 1.117, 3-[4-[(4-bromoimidazol-1-yl)methyl]-3-methoxy-phenyl]-5-(trifluoromethyl)-1,2,4-oxadiazole], the inhibition of growth at 20 ppm was at least 80%.
For `Cc1nn(Cc2ccc(-c3noc(C(F)(F)F)n3)cc2F)c(C)c1Cl` [Compound 1.127, 3-[4-[(4-chloro-3,5-dimethyl-pyrazol-1-yl)methyl]-3-fluoro-phenyl]-5-(trifluoromethyl)-1,2,4-oxadiazole], the inhibition of growth at 20 ppm was at least 80%.
Molecule `Fc1cc(-c2noc(C(F)(F)F)n2)ccc1Cn1nnnc1-c1ccc(Cl)cc1` [Compound 1.130, 3-[4-[[5-(4-chlorophenyl)tetrazol-1-yl)methyl]-3-fluoro-phenyl]-5-(trifluoromethyl)-1,2,4-oxadiazole] has an inhibition of growth at 20 ppm of at least 80%.
`COC(=O)c1ncn(Cc2ccc(-c3noc(C(F)(F)F)n3)cn2)n1` [Compound 1.138, methyl 1-[[5-[5-(trifluoromethyl)-1,2,4-oxadiazol-3-yl]-2-pyridyl]methyl]-1,2,4-triazole-3-carboxylate] was tested, and the inhibition of growth at 20 ppm was at least 80%.
For `Cc1cc(C)n(Cc2ccc(-c3noc(C(F)(F)F)n3)cn2)n1` [Compound 1.140, 3-[6-[(3,5-dimethylpyrazol-1-yl)methyl]-3-pyridyl]-5-(trifluoromethyl)-1,2,4-oxadiazole], the inhibition of growth at 20 ppm was at least 80%.
Molecule `CCOC(=O)c1ncn(Cc2ccc(-c3noc(C(F)(F)F)n3)cc2)c1-c1ccccc1` [Compound 1.188, ethyl 5-phenyl-1-[[4-[5-(trifluoromethyl)-1,2,4-oxadiazol-3-yl]phenyl]methyl]imidazole-4-carboxylate] has an inhibition of growth at 20 ppm of at least 80%.
